# Measurements: patent US20110294843A1, “ADMINISTRATION SCHEME OF POLAR OPIOID METABOLITES FOR POST-OPERATIVE PAIN MANAGEMENT” (PAION UK Limited, priority 2008, published 2011)
# Legend:
# [1] = system: patients following major abdominal surgery; assay: M6G022 study: analgesic efficacy and tolerability of M6G and morphine following major abdominal surgery
# Method: Pain relief, nausea and emesis were recorded for 24 to 48 hours after start of the patient controlled analgesia.
# The study site personnel (with the exception of the pharmacy); representatives of the sponsoring company; and the organisation involved in monitoring, data management, or other aspects of the study were blinded to the study treatment. The use of midazolam, temazepam, zopiclone or other short-acting pre-operative anxiolytics was allowed. All patients received a standardised general anaesthetic consisting of propofol induction, with either isoflurane or sevoflurane maintenance. These inhalational agents are associated with a similar risk of PONV. Nitrous oxide was not allowed because of its emetic effects, and the risk of an imbalance in its use. An initial bolus of 1-3 μg/kg of fentanyl or 0.1-0.3 μg/kg of sufentanyl followed by further doses as required, was used for pre- and peri-operative analgesia. Post-operative analgesia was provided by the study drug.
# The investigator could administer up to 5 ml of PCA study drug, on no more than two occasions in each 24 hour post-operative period, as rescue medication if the patient was in uncontrolled pain. […] The patients stayed on PCA for a minimum of 24 hours following surgery, but could continue up to 48 hours if clinically indicated.
# No prophylactic antiemetic was given, although iv ondansetron (4 mg/2 ml) was available if the patient experienced severe nausea, or immediately following emesis. If this was ineffective further doses of ondansetron; or other agents such as cyclizine, prochlorperazine or perphenazine; were allowed.
# Pain intensity at rest was assessed by the patients using the VRS-11 scale at baseline, 15, 30 and 45 minutes and 1, 2, 4, 6, 9, 12, 15, 18, 21 and 24 hours after the start of PCA. A numerical scale was chosen because of the practical difficulty for post-operative patients of completing a visual analogue scale. If the patient remained on PCA after 24 hours, the pain scores were recorded every 8 hours up to 48 hours. In addition, at the end of the study the patients and observers were asked to assess the acceptability of their pain relief over the entire study using a 5 point rating global scale ranging from very poor (1) to excellent (5). […] The total consumption of study drugs was calculated.
# Emesis risk factors of female gender; history of motion sickness or PONV; or smoking status were recorded at screening. Post-operative nausea was assessed by the patient using a 4 point ordinal scale (none, mild, moderate, severe) and occurrence of vomiting or dry retching recorded (yes/no; and if yes, the number of episodes) pre-operatively (Day −1), at baseline, and at 1, 2, 4, 6, 9, 12, 15, 18, 21, 24, 32, 40 and 48 hours after administration of the test analgesic. Nausea and vomiting were also combined in a single scoring system (postoperative nausea & vomiting, PONV), with an episode of vomiting or dry retching being scored as a 3 (severe) on the nausea scale.
# Sedation was assessed using a combination of a binary question (sleepy, yes or no) and a 3 point ordinal scale (mild, moderate, severe) if the patient was sedated. All adverse events were recorded, along with concomitant medication use, with particular attention being paid to the use of anti-emetics.
# The Intention to Treat (ITT) set of patients comprised all those who had been exposed to study medication at least once. This analysis set was the basis for the main efficacy and all safety and demographic analyses. Data were double entered using interactive verification into a CLINTRIAL database (Version 3.3.3, Phase Forward, Waltham, Mass., USA), and analysed using SAS (version 8.2, SAS Institute Inc., Cary, N.C., USA).
# [2] = system: patients with pain treatment after surgery; assay: Meta analysis of four clinical studies with M6G pain treatment after surgery
# Source text: The four studies M6G001, M6G012, M6G015 and M6G022 are described in the following.
# The following variables were included in the meta analysis:
# Nausea (none, mild, moderate, severe)
# Sedation (none, mild, moderate, severe)
# Pain (none, mild, moderate, severe)
smiles,measurement,setting,value
"CN1CC[C@]23c4c5ccc(O)c4O[C@H]2[C@@H](O)C=C[C@H]3[C@H]1C5 [Morphine, morphine]",mean totals of PCA demands,[1]; 4-48 h,93.9
same,patients with sedation score recorded as severe,[1]; baseline,28.5%
same,patients sedated,[1]; baseline (when given control of the PCA button),88.0%
same,mean totals of PCA demands,[1]; early post-operative period (up to 4 hours),28.8
same,dose required to achieve comfort initially,[1]; loading and recovery doses before PCA,14.4 mg/70 kg
same,pain-free time,[2]; during first 24 hours,9.0 to 10.9 h
same,patients with moderate to severe sedation,"[2]; human, in vivo, intravenous",81.4%
same,patients with moderate to severe pain,[2]; time window 0 to 6 hours,54.2%
same,patients with moderate to severe pain,[2]; time window 6-24 hours,34.0%
same,patients with moderate to severe nausea,[2]; worst assessment,32.8%
same,patients with vomiting,[2]; worst assessment,36.5%
